Laboratory results reported in BigSolDB 2.1.

CCC[C@@H]1CC(=O)N([C@@H](CC)C(N)=O)C1
solubility (mole fraction)
Details	278.15 K	283.15 K	288.15 K	293.15 K	298.15 K	303.15 K	308.15 K	313.15 K	318.15 K	323.15 K
in MTBE	0.00794	0.0117	0.0181	0.0331	0.0496	0.078	0.11	0.175	0.291	0.419
in diisopropyl ether	0.00075	0.00108	0.00235	0.00327	0.00513	0.00618	0.00879	0.0143	0.0205	0.0341
in ethanol	0.189	0.226	0.258	0.297	0.328	0.371	0.415	0.466	0.523	0.576
in ethyl acetate	0.0369	0.0541	0.0769	0.113	0.152	0.201	0.275	0.332	0.418	0.499
in ethyl formate	0.0887	0.113	0.142	0.18	0.224	0.279	0.33	0.393	0.465	0.519
in isopropanol	0.127	0.163	0.186	0.219	0.25	0.287	0.341	0.392	0.445	0.51
in isopropyl acetate	0.0322	0.0429	0.0625	0.0768	0.109	0.154	0.206	0.287	0.365	0.455
in methanol	0.234	0.275	0.309	0.337	0.367	0.416	0.445	0.497	0.557	0.61
in n-butyl acetate	0.0279	0.0337	0.0428	0.0577	0.0846	0.108	0.161	0.21	0.293	0.412
in n-heptane	1.02e-05	1.86e-05	3.36e-05	4.77e-05	8.17e-05	0.000113	0.000168	0.000249	0.000335	0.000493
in n-hexane	4.1e-05	6.64e-05	8.92e-05	0.000133	0.00018	0.000239	0.000324	0.000413	0.000524	0.000739
in n-propanol	0.137	0.17	0.204	0.245	0.28	0.318	0.365	0.412	0.475	0.52
